Experimental data taken from PubChem BioAssay (NCI).
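All cell lines were grown in 96-well plates and treated with compound for 48 hours. The concentration for full growth arrest is given as TGI.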

Legend:
Test in all cases: growth of human tumour cells (NCI), 48 h
CCRF-CEM leukemia = system: CCRF-CEM leukemia
MDA-N = system: MDA-N
HCC-2998 colon = system: HCC-2998 colon
NCI-H23 lung = system: NCI-H23 lung
NCI-H226 lung = system: NCI-H226 lung
MALME-3M melanoma = system: MALME-3M melanoma
BT-549 breast = system: BT-549 breast
HOP-62 NSCLC = system: HOP-62 NSCLC
SNB-19 CNS = system: SNB-19 CNS
UO-31 renal = system: UO-31 renal
LOX IMVI melanoma = system: LOX IMVI melanoma
SF-295 CNS = system: SF-295 CNS
SK-MEL-2 melanoma = system: SK-MEL-2 melanoma
HOP-92 NSCLC = system: HOP-92 NSCLC
CAKI-1 renal = system: CAKI-1 renal
HT29 colon = system: HT29 colon
HS 578T breast = system: HS 578T breast
TK-10 renal = system: TK-10 renal
OVCAR-4 ovarian = system: OVCAR-4 ovarian
RXF 393 renal = system: RXF 393 renal
SNB-75 CNS = system: SNB-75 CNS
MDA-MB-231 breast = system: MDA-MB-231 breast
KM12 colon = system: KM12 colon
SF-268 CNS = system: SF-268 CNS
HCT-15 colon = system: HCT-15 colon
T-47D breast = system: T-47D breast
MCF7 breast = system: MCF7 breast
PC-3 prostate = system: PC-3 prostate
COLO 205 colon = system: COLO 205 colon
OVCAR-8 ovarian = system: OVCAR-8 ovarian
UACC-257 melanoma = system: UACC-257 melanoma
HL-60(TB) leukemia = system: HL-60(TB) leukemia
SR leukemia = system: SR leukemia
SW-620 colon = system: SW-620 colon
RPMI-8226 leukemia = system: RPMI-8226 leukemia
A549 NSCLC = system: A549 NSCLC
ACHN renal = system: ACHN renal
HCT-116 colon = system: HCT-116 colon
DU-145 prostate = system: DU-145 prostate
M14 melanoma = system: M14 melanoma
MDA-MB-435 = system: MDA-MB-435
MOLT-4 leukemia = system: MOLT-4 leukemia
786-0 renal = system: 786-0 renal
SF-539 CNS = system: SF-539 CNS
IGROV1 ovarian = system: IGROV1 ovarian
U251 CNS = system: U251 CNS
EKVX NSCLC = system: EKVX NSCLC
UACC-62 melanoma = system: UACC-62 melanoma
NCI-H522 lung = system: NCI-H522 lung
OVCAR-5 ovarian = system: OVCAR-5 ovarian
K-562 leukemia = system: K-562 leukemia
SK-MEL-28 melanoma = system: SK-MEL-28 melanoma
NCI/ADR-RES ovarian = system: NCI/ADR-RES ovarian
OVCAR-3 ovarian = system: OVCAR-3 ovarian
SK-MEL-5 melanoma = system: SK-MEL-5 melanoma
SN12C renal = system: SN12C renal
SK-OV-3 ovarian = system: SK-OV-3 ovarian
A498 renal = system: A498 renal
NCI-H460 lung = system: NCI-H460 lung

Work on CCOC(=O)C(NCc1ccccc1)(NC(=O)c1ccccc1)C(F)(F)F (configuration not stated) yielded a TGI (CCRF-CEM leukemia) of 89.9 µM, a TGI (MDA-N) greater than 100 µM and a TGI (HCC-2998 colon) greater than 100 µM. For the same molecule, the TGI (NCI-H23 lung) was greater than 100 µM, the TGI (NCI-H226 lung) was greater than 100 µM and the TGI (MALME-3M melanoma) was greater than 100 µM. The TGI (BT-549 breast) was greater than 100 µM, the TGI (HOP-62 NSCLC) was greater than 100 µM and the TGI (SNB-19 CNS) was greater than 100 µM. The TGI (UO-31 renal) was greater than 100 µM, the TGI (LOX IMVI melanoma) was greater than 100 µM and the TGI (SF-295 CNS) was greater than 100 µM. For the same molecule, the TGI (SK-MEL-2 melanoma) was greater than 100 µM, the TGI (HOP-92 NSCLC) was greater than 100 µM and the TGI (CAKI-1 renal) was greater than 100 µM. For the same molecule, the TGI (HT29 colon) was greater than 100 µM, the TGI (HS 578T breast) was greater than 100 µM and the TGI (TK-10 renal) was greater than 100 µM. The TGI (OVCAR-4 ovarian) was greater than 100 µM, the TGI (RXF 393 renal) was greater than 100 µM and the TGI (SNB-75 CNS) was greater than 100 µM. The TGI (MDA-MB-231 breast) was 83.6 µM, the TGI (KM12 colon) was greater than 100 µM and the TGI (SF-268 CNS) was greater than 100 µM. The TGI (HCT-15 colon) was greater than 100 µM, the TGI (T-47D breast) was greater than 100 µM and the TGI (MCF7 breast) was greater than 100 µM. The TGI (PC-3 prostate) was greater than 100 µM, the TGI (COLO 205 colon) was greater than 100 µM and the TGI (OVCAR-8 ovarian) was greater than 100 µM. It also gave a TGI (UACC-257 melanoma) greater than 100 µM, a TGI (HL-60(TB) leukemia) greater than 100 µM and a TGI (SR leukemia) greater than 100 µM. It also gave a TGI (SW-620 colon) greater than 100 µM, a TGI (RPMI-8226 leukemia) greater than 100 µM and a TGI (A549 NSCLC) greater than 100 µM. For the same molecule, the TGI (ACHN renal) was greater than 100 µM, the TGI (HCT-116 colon) was greater than 100 µM and the TGI (DU-145 prostate) was greater than 100 µM. For the same molecule, the TGI (M14 melanoma) was greater than 100 µM, the TGI (MDA-MB-435) was greater than 100 µM and the TGI (MOLT-4 leukemia) was greater than 100 µM. The TGI (786-0 renal) was greater than 100 µM, the TGI (SF-539 CNS) was greater than 100 µM and the TGI (IGROV1 ovarian) was greater than 100 µM. It also gave a TGI (U251 CNS) greater than 100 µM, a TGI (EKVX NSCLC) greater than 100 µM and a TGI (UACC-62 melanoma) greater than 100 µM. For the same molecule, the TGI (NCI-H522 lung) was greater than 100 µM, the TGI (OVCAR-5 ovarian) was greater than 100 µM and the TGI (K-562 leukemia) was greater than 100 µM. For the same molecule, the TGI (SK-MEL-28 melanoma) was greater than 100 µM, the TGI (NCI/ADR-RES ovarian) was greater than 100 µM and the TGI (OVCAR-3 ovarian) was greater than 100 µM. It also gave a TGI (SK-MEL-5 melanoma) greater than 100 µM, a TGI (SN12C renal) greater than 100 µM and a TGI (SK-OV-3 ovarian) greater than 100 µM.

Work on CSc1n[nH]c(N)c1C(=O)Nc1ccc(Cl)cc1 yielded a TGI (CCRF-CEM leukemia) greater than 100 µM, a TGI (MDA-N) greater than 100 µM and a TGI (HCC-2998 colon) greater than 100 µM. It also gave a TGI (NCI-H23 lung) greater than 100 µM, a TGI (NCI-H226 lung) of 76.5 µM and a TGI (MALME-3M melanoma) greater than 100 µM. The TGI (BT-549 breast) was greater than 100 µM, the TGI (SNB-19 CNS) was greater than 100 µM and the TGI (UO-31 renal) was greater than 100 µM. It also gave a TGI (LOX IMVI melanoma) greater than 100 µM, a TGI (SK-MEL-2 melanoma) greater than 100 µM and a TGI (CAKI-1 renal) greater than 100 µM. The TGI (HT29 colon) was greater than 100 µM, the TGI (HS 578T breast) was greater than 100 µM and the TGI (TK-10 renal) was greater than 100 µM. For the same molecule, the TGI (OVCAR-4 ovarian) was greater than 100 µM, the TGI (RXF 393 renal) was 60.7 µM and the TGI (SNB-75 CNS) was greater than 100 µM. For the same molecule, the TGI (MDA-MB-231 breast) was greater than 100 µM, the TGI (KM12 colon) was greater than 100 µM and the TGI (SF-268 CNS) was greater than 100 µM. The TGI (HCT-15 colon) was greater than 100 µM, the TGI (T-47D breast) was greater than 100 µM and the TGI (MCF7 breast) was greater than 100 µM. It also gave a TGI (PC-3 prostate) greater than 100 µM, a TGI (COLO 205 colon) greater than 100 µM and a TGI (OVCAR-8 ovarian) greater than 100 µM. The TGI (UACC-257 melanoma) was greater than 100 µM, the TGI (HL-60(TB) leukemia) was greater than 100 µM and the TGI (SR leukemia) was greater than 100 µM. It also gave a TGI (SW-620 colon) greater than 100 µM, a TGI (A498 renal) greater than 100 µM and a TGI (RPMI-8226 leukemia) greater than 100 µM. The TGI (A549 NSCLC) was greater than 100 µM, the TGI (HCT-116 colon) was 56 µM and the TGI (DU-145 prostate) was greater than 100 µM. For the same molecule, the TGI (M14 melanoma) was greater than 100 µM, the TGI (MDA-MB-435) was greater than 100 µM and the TGI (MOLT-4 leukemia) was greater than 100 µM. For the same molecule, the TGI (786-0 renal) was greater than 100 µM, the TGI (SF-539 CNS) was greater than 100 µM and the TGI (IGROV1 ovarian) was greater than 100 µM. For the same molecule, the TGI (U251 CNS) was greater than 100 µM, the TGI (EKVX NSCLC) was greater than 100 µM and the TGI (UACC-62 melanoma) was greater than 100 µM. For the same molecule, the TGI (NCI-H522 lung) was greater than 100 µM, the TGI (OVCAR-5 ovarian) was greater than 100 µM and the TGI (K-562 leukemia) was greater than 100 µM. The TGI (SK-MEL-28 melanoma) was greater than 100 µM, the TGI (NCI/ADR-RES ovarian) was greater than 100 µM and the TGI (OVCAR-3 ovarian) was greater than 100 µM. The TGI (SK-MEL-5 melanoma) was greater than 100 µM, the TGI (NCI-H460 lung) was greater than 100 µM and the TGI (SN12C renal) was greater than 100 µM. The TGI (SK-OV-3 ovarian) was greater than 100 µM.
